Several values for one entry are separate records, joined by “and”; a condition that tells them apart may be missing. Identical values can stand only once.
How the values were obtained:
[1] = test system: VELE (velvetleaf); assay: Greenhouse test Procedure I with PPI or POE herbicide and foliar insecticide (Example 5; Table 5); assay type: in vivo, Abutilon theophrasti; conditions: 3 weeks
Procedure: (§1) Containers were filled and compacted with a fumigated silt loam top soil to a depth of about 1.3 cm from the top of the container. A first container was designated as an untreated control, a second container was designated as a herbicide control, and a third container was designated as a herbicide + antidote test container. Each of the containers was seeded with a crop species. A measured amount of herbicide dispersed or dissolved in acetone was applied to a measured quantity of soil. To this same quantity of soil treated with herbicide, there was added a measured amount of antidote dispersed or dissolved in acetone. The quantity of soil treated with the herbicide and antidote was thoroughly mixed to incorporate the herbicide and antidote in the soil uniformly. The seed bed in the third container of soil was covered with the soil treated with the herbicide and antidote and the container was leveled. For each test series, the seed beds of the first and second containers were likewise covered by soil layers. the cover layer of the first container was not treated with herbicide or antidote.
(§2) Insecticide application was made as described in the tests in the examples below. The containers were then placed on a bench in a greenhouse and sub-irrigated as required for the duration of the test.
(§3) Said herbicide and antidote were sequentially pipetted onto cover layers, which were spread over the seed beds and subirrigated as in Procedure I and allowed to grow to a height of about 10 cm over a period of 11 days. Herbicide No. 1 and Insecticide No. 2 were then sequentially sprayed on the plant foliage. Observations were made three (3) weeks after initial treatment, 10 days after foliar treatment).

[2] = test system: Corn; assay: as above; assay type: in vivo; conditions: for % Injury Corn: 3 weeks
Procedure: as §1, §2, §3

[3] = test system: Corn; assay: Greenhouse test Procedure II: herbicide, insecticide and antidote incorporated in cover layer (Example 4; Table 4); assay type: in vivo; conditions: 3 weeks
Procedure: as §1
(§4) This procedure is the same as Procedure I, but modified in the manner that after incorporation of the chemicals (herbicide, antidote and insecticide), the containers with the covered seedbed were treated with an initial overhead irrigation equivalent to 0.6 cm rainfall, then subsequently sub-irrigated as required on greenhouse benches.
(§5) The procedure used in this test was Procedure No. 2 above. Formulations of herbicide, insecticide and antidote were applied via track sprayer sequentially onto cover layers, incorporated into the soil which was spread over seedbeds, then irrigated from above with 0.6 cm water. Observations were made three (3) weeks after treatment.

[4] = test system: Corn; assay: Field trials, PPI, PRE and POE herbicide applications with terbufos (Example 7); assay type: in vivo
Text: This example summarizes the results of one series of field trials from a plurality of locations and soil types wherein test chemicals were applied in various modes including pre-plant incorporated (PPI), post emergence (POE) and preemergence (PRE) with and without a safener (antidote). Test Chemicals were Herbicide Nos 1, 2, 3 and 7-9; Insecticide No. 1 and Antidote No. 1.
In these trials Insecticide No. 1 (terbufos) was T-banded or furrow applied at labeled rates prior to planting corn. PPI herbicide treatments were applied prior to insecticide applications; PRE treatments were applied after the insecticide application either prior to or after seeding the corn. POE herbicide applications were made at 2 corn-growth stages, i.e., early post (EP) at the 2-3 leaf stage and late post (LP) at the 4-7 leaf stage. Plots were small plot with 3 replications in a randomized complete block design. In the PRE and PPI herbicide treatments, Antidote No. 1 was applied as a tankmix in both treatments. In the POE herbicide treatments, that antidote was applied as a tank mix with the herbicide at the EP and LP stages.

[5] = test system: velvetleaf (Abutilon theophrasti); assay: Greenhouse test, combination of Procedures II and III (Examples 1, 2; Tables 1, 2); assay type: in vivo; conditions: for Percent Injury VELE: 7 weeks; for % Injury VELE: 3 weeks
[6] = test system: VELE (velvetleaf); assay: Greenhouse test Procedure II (Example 4; Table 4); assay type: in vivo, Abutilon theophrasti; conditions: 3 weeks
Procedure: as §1, §4, §5

[7] = Antidote 1 0.14 + Herbicide 1 0.14 Kg/Ha PPI
[8] = Antidote 1 0.56 + Herbicide 1 0.56 Kg/Ha PPI
[9] = Antidote 1 2.24 + Herbicide 1 2.24 Kg/Ha PPI
[10] = Insecticide 2 1.68 (foliar) + Antidote 1 0.14 + Herbicide 1 0.14 Kg/Ha PPI
[11] = Insecticide 2 1.68 (foliar) + Antidote 1 2.24 + Herbicide 1 2.24 Kg/Ha PPI
[12] = Insecticide 2 1.68 (foliar) + Antidote 1 2.24 Kg/Ha PPI, no herbicide
[13] = Antidote 1 0.07 + Herbicide 1 0.07 kg/Ha
[14] = Antidote 1 0.07 + Herbicide 4 0.07 kg/Ha
[15] = Antidote 1 0.07 + Herbicide 5 0.07 kg/Ha
[16] = Antidote 1 0.07 + Herbicide 6 0.07 kg/Ha
[17] = Antidote 1 0.14 + Herbicide 1 0.14 kg/Ha
[18] = Antidote 1 0.14 + Herbicide 4 0.14 kg/Ha
[19] = Antidote 1 0.14 + Herbicide 5 0.14 kg/Ha
[20] = Antidote 1 0.14 + Herbicide 6 0.14 kg/Ha
[21] = Insecticide 2 3.36 + Antidote 1 0.014 + Herbicide 1 0.14 kg/Ha
[22] = Insecticide 2 3.36 + Antidote 1 0.07 + Herbicide 1 0.07 kg/Ha
[23] = Insecticide 2 3.36 + Antidote 1 0.07 + Herbicide 4 0.07 kg/Ha
[24] = Insecticide 2 3.36 + Antidote 1 0.07 + Herbicide 5 0.07 kg/Ha
[25] = Insecticide 2 3.36 + Antidote 1 0.07 + Herbicide 6 0.07 kg/Ha
[26] = Insecticide 2 3.36 + Antidote 1 0.14 + Herbicide 4 0.14 kg/Ha
[27] = Insecticide 2 3.36 + Antidote 1 0.14 + Herbicide 5 0.14 kg/Ha
[28] = Insecticide 2 3.36 + Antidote 1 0.14 + Herbicide 6 0.14 kg/Ha

## CC1(C)OC(c2ccco2)CN1C(=O)C(Cl)Cl (centres unmarked) [Antidote No. 1, Oxazolidine, 3-(dichloroacetyl)-2,2-dimethyl-5-(2-furanyl)-]
[1]; [7]
  % Injury VELE: 85%
[1]; [8]
  % Injury VELE: 80%
[1]; [9]
  % Injury VELE: 93%
[1]; [10]
  % Injury VELE: 90%
[1]; Insecticide 2 1.68 (foliar) + Antidote 1 0.56 + Herbicide 1 0.56 Kg/Ha PPI
  % Injury VELE: 93%
[1]; [11]
  % Injury VELE: 93%
[1]; [12]
  % Injury VELE: 0%
[2]; [7]
  % Injury Corn: 0%
[2]; [8]
  % Injury Corn: 5%
[2]; [9]
  % Injury Corn: 0%
[2]; Ex. 5: PPI Herbicide No. 1 with or without Insecticide No. 2
  safening: safened PPI herbicide treatments
[2]; [10]
  % Injury Corn: 0%
[2]; [11]
  % Injury Corn: 0%
[2]; [12]
  % Injury Corn: 0%
[3]; [13]
  % Injury Corn: 0%
[3]; [14]
  % Injury Corn: 0%
[3]; [15]
  % Injury Corn: 20%
[3]; [16]
  % Injury Corn: 0%
[3]; [17]
  % Injury Corn: 10%
[3]; [18]
  % Injury Corn: 8%
[3]; [19]
  % Injury Corn: 55%
[3]; [20]
  % Injury Corn: 3%
[3]; [21]
  % Injury Corn: 0%
[3]; [22]
  % Injury Corn: 0%
[3]; [23]
  % Injury Corn: 25%
[3]; [24]
  % Injury Corn: 95%
[3]; [25]
  % Injury Corn: 5%
[3]; [26]
  % Injury Corn: 88%
[3]; [27]
  % Injury Corn: 95%
[3]; [28]
  % Injury Corn: 63%
[4]; antidote tankmix POE with Herbicide No. 7, Insecticide No. 1
  safening of insecticide interactions: effectively safened
[4]; mean of nine locations, PRE and PPI, Insecticide No. 1, 1:1 Herbicide No. 1:Antidote No. 1 and 30:1 Herbicide No. 2:Antidote No. 1
  crop injury: reduced from non-commercially-acceptable to commercially-acceptable levels
[5]; Antidote 1 0.14 + Herbicide 1 0.14 Kg/Ha
  Percent Injury VELE: 88%
[5]; Antidote 1 0.56 + Herbicide 1 0.56 Kg/Ha
  Percent Injury VELE: 92%
[5]; Antidote 1 2.24 + Herbicide 1 2.24 Kg/Ha
  Percent Injury VELE: 93%
[5]; Antidote 1 2.24 Kg/Ha alone
  Percent Injury VELE: 0%
[5]; Ex. 2: Antidote 1 0.14 + Herbicide 1 0.14 Kg/Ha
  % Injury VELE: 86%
[5]; Ex. 2: Antidote 1 0.42 + Herbicide 1 0.14 Kg/Ha
  % Injury VELE: 93%
[5]; Ex. 2: Antidote 1 0.56 + Herbicide 1 0.56 Kg/Ha
  % Injury VELE: 90%
[5]; Ex. 2: Antidote 1 1.68 + Herbicide 1 0.56 Kg/Ha
  % Injury VELE: 95%
[5]; Ex. 2: Insecticide 1 0.11 kg/305m + Antidote 1 0.14 + Herbicide 1 0.14 Kg/Ha
  % Injury VELE: 78%
[5]; Ex. 2: Insecticide 1 0.11 kg/305m + Antidote 1 0.42 + Herbicide 1 0.14 Kg/Ha
  % Injury VELE: 84%
[5]; Ex. 2: Insecticide 1 0.11 kg/305m + Antidote 1 0.56 + Herbicide 1 0.56 Kg/Ha
  % Injury VELE: 93%
[5]; Ex. 2: Insecticide 1 0.11 kg/305m + Antidote 1 1.68 + Herbicide 1 0.56 Kg/Ha
  % Injury VELE: 95%
[5]; Ex. 2: Insecticide 1 0.23 Kg/305m (ditto mark) + Antidote 1 0.22 + Herbicide 2 4.48 Kg/Ha (so in the source)
  % Injury VELE: 36% and 38%
[5]; Ex. 2: Insecticide 1 0.23 Kg/305m + Antidote 1 0.14 + Herbicide 1 0.14 Kg/Ha
  % Injury VELE: 83%
[5]; Ex. 2: Insecticide 1 0.23 Kg/305m + Antidote 1 0.22 + Herbicide 1 0.14 + Herbicide 2 4.48 Kg/Ha
  % Injury VELE: 98%
[5]; Ex. 2: Insecticide 1 0.23 Kg/305m + Antidote 1 0.42 + Herbicide 1 0.14 Kg/Ha
  % Injury VELE: 90%
[5]; Ex. 2: Insecticide 1 0.23 Kg/305m + Antidote 1 0.56 + Herbicide 1 0.56 Kg/Ha
  % Injury VELE: 95%
[5]; Ex. 2: Insecticide 1 0.23 Kg/305m + Antidote 1 1.68 + Herbicide 1 0.56 Kg/Ha
  % Injury VELE: 93%
[5]; Ex. 2: Insecticide 2 1.68 kg/Ha + Antidote 1 0.14 + Herbicide 1 0.14 Kg/Ha (so in the source)
  % Injury VELE: 91% and 84% and 79%
[5]; Ex. 2: Insecticide 2 1.68 kg/Ha + Antidote 1 0.56 + Herbicide 1 0.56 Kg/Ha (so in the source)
  % Injury VELE: 90% and 89% and 91%
[5]; Ex. 2: Insecticide 2 3.36 Kg/Ha + Antidote 1 0.14 + Herbicide 1 0.14 Kg/Ha (so in the source)
  % Injury VELE: 81% and 79% and 89%
[5]; Ex. 2: Insecticide 2 3.36 Kg/Ha + Antidote 1 0.22 + Herbicide 1 0.14 + Herbicide 2 4.48 Kg/Ha
  % Injury VELE: 83%
[5]; Ex. 2: Insecticide 2 3.36 Kg/Ha + Antidote 1 0.22 + Herbicide 2 4.48 Kg/Ha
  % Injury VELE: 11%
[5]; Ex. 2: Insecticide 2 3.36 Kg/Ha + Antidote 1 0.56 + Herbicide 1 0.56 Kg/Ha (so in the source)
  % Injury VELE: 95%
[5]; Insecticide 1 0.23 kg/305m + Antidote 1 0.14 + Herbicide 1 0.14 Kg/Ha
  Percent Injury VELE: 87%
[5]; Insecticide 1 0.23 kg/305m + Antidote 1 0.14 Kg/Ha, no herbicide
  Percent Injury VELE: 0%
[5]; Insecticide 1 0.23 kg/305m + Antidote 1 0.56 + Herbicide 1 0.56 Kg/Ha
  Percent Injury VELE: 90%
[5]; Insecticide 1 0.23 kg/305m + Antidote 1 0.56 Kg/Ha, no herbicide
  Percent Injury VELE: 0%
[5]; Insecticide 1 0.23 kg/305m + Antidote 1 2.24 + Herbicide 1 2.24 Kg/Ha
  Percent Injury VELE: 92%
[5]; Insecticide 1 0.23 kg/305m + Antidote 1 2.24 Kg/Ha, no herbicide
  Percent Injury VELE: 0%
[5]; Insecticide 1 (H2O) (crystals scattered in-furrow) + Antidote 1 2 + Herbicide 1 2 Kg/Ha
  Percent Injury VELE: 95%
[5]; Insecticide 1 (H2O) (crystals scattered in-furrow) + Antidote 1 2 Kg/Ha
  Percent Injury VELE: 0%
[5]; Insecticide 2 3.36 kg/ha + Antidote 1 0.14 + Herbicide 1 0.14 Kg/Ha
  Percent Injury VELE: 83%
[5]; Insecticide 2 3.36 kg/ha + Antidote 1 0.14 Kg/Ha, no herbicide
  Percent Injury VELE: 78%
[5]; Insecticide 2 3.36 kg/ha + Antidote 1 0.56 + Herbicide 1 0.56 Kg/Ha
  Percent Injury VELE: 92%
[5]; Insecticide 2 3.36 kg/ha + Antidote 1 0.56 Kg/Ha, no herbicide
  Percent Injury VELE: 33%
[5]; Insecticide 2 3.36 kg/ha + Antidote 1 2.24 + Herbicide 1 2.24 Kg/Ha
  Percent Injury VELE: 95%
[5]; Insecticide 2 3.36 kg/ha + Antidote 1 2.24 Kg/Ha, no herbicide
  Percent Injury VELE: 0%
[6]; [13]
  % Injury VELE: 8%
[6]; [14]
  % Injury VELE: 0%
[6]; [15]
  % Injury VELE: 68%
[6]; [16]
  % Injury VELE: 5%
[6]; [17]
  % Injury VELE: 43%
[6]; [18]
  % Injury VELE: 30%
[6]; [19]
  % Injury VELE: 68%
[6]; [20]
  % Injury VELE: 28%
[6]; [21]
  % Injury VELE: 53%
[6]; [22]
  % Injury VELE: 23%
[6]; [23]
  % Injury VELE: 0%
[6]; [24]
  % Injury VELE: 55%
[6]; [25]
  % Injury VELE: 15%
[6]; [26]
  % Injury VELE: 78%
[6]; [27]
  % Injury VELE: 83%
[6]; [28]
  % Injury VELE: 40%

From EP0565593B1, “REDUCING PESTICIDAL INTERACTIONS IN CROPS” (priority 1990, dated 1992)
